Assay results as given in patent publication US7416741B2, “Copper lowering treatment of inflammatory and fibrotic diseases” (The Regents of the University of Michigan, priority 2002, dated 2008).

What was measured:
[1] = Solubility and stability of TM salts; settings: other salts of TM
Source text: Thus, other salts have been prepared and evaluated for solubility, stability and anticopper activity.

[2] = In vitro copper complexing studies; settings: compared with ammonium salt of TM
hAPP tg mice = settings: pharmacologic treatment of hAPP tg mice; cited from earlier work
[3] = test system: Wilson's disease patients; settings: cited from earlier work
bleomycin mouse model = settings: in vivo; cited from earlier work
[4] = test system: Wilson's disease patients; settings: at cupruresis of 2-3 mg
Procedure: Ingestion of copper is about 1 mg/day, with obligatory, non-urine losses of about 0.5 mg.

cancer patients = settings: cited from earlier work
[5] = therapeutic dose 1,000-2,000 mg/day

## CCC[N+](CCC)(CCC)CCC.CCC[N+](CCC)(CCC)CCC.[S]=[Mo](=[S])([S-])[S-] [TPTM, tetrapropyl tetrathiomolybdate]
[1]
  solubility in water: suitable solubility in water
[2]
  in vitro copper complexing: behave similarly to ammonium salt of TM

## C[N+](C)(C)CCO.C[N+](C)(C)CCO.[SH-].[SH-].[S]=[Mo]=[S] [choline TM]
[2]
  in vitro copper complexing: behave similarly to ammonium salt of TM

## Oc1c(I)cc(Cl)c2cccnc12 [clioquinol]
hAPP tg mice
  amyloid pathology: prevented

## CC(C)Cc1ccc(C(C)C(=O)O)cc1 (centres unmarked) [ibuprofen]
hAPP tg mice
  amyloid pathology: prevented

## CC(C)(S)[C@@H](N)C(=O)O [penicillamine]
[3]; human, in vivo
  patients developing initial hypersensitivity syndrome: about a quarter to a third of patients

## Cc1ccc(=O)n(-c2ccccc2)c1 [perfenidone]
Bleomycin mouse model
  efficacy in the bleomycin mouse model: effective in the bleomycin mouse model

## CC[N+](CC)(CC)CC.CC[N+](CC)(CC)CC.[S]=[Mo](=[S])([S-])[S-] [tetraethyl TM]
[1]
  solubility in water: suitable solubility in water
[2]
  in vitro copper complexing: behave similarly to ammonium salt of TM

## NCCNCCNCCN [trientine]
[3]; after several weeks of use
  patients with proteinuria: about 20%
[3]; [5]
  cupruresis after the first few weeks of therapy: 2 to 3 mg
  cupruresis, initial: 4 to 5 mg
[4]
  negative copper balance: 1.5 to 2.5 mg/day

## CC(=O)[O-].CC(=O)[O-].[Zn+2] [zinc, zinc acetate]
[3]; Wilson's patients, average
  copper balance induced: −0.35 mg daily
[3]; Wilson's patients
  time to achieve intestinal metallothionein induction and a negative copper balance: approximately two
[3]; zinc therapy
  time to bring urine copper and nonceruloplasmin plasma copper down to subtoxic levels: six

## bleomycin
Cancer patients
  patients developing pulmonary fibrosis: about 3%
